From patent publication US6552080B1, “Fungicidal compounds having a fluorovinyl-or fluoropropenyl-oxyphenyloxime moiety and process for the preparation thereof” (Korea Research Institute of Chemical Technology, priority 1999, dated 2003) come the findings set out here.

SMILES strings stand for the structures. Like-named read-outs stand apart in the source and are kept apart here.

In test [1] the test system is Pyricularia oryzae Carvara KA301. It counts as in vivo. The note with it: for RCV (Fungicidal Activities, C.V.): Rice Blast.
The subject of the next test is Botrytis cinerae. In words: Fungicidal activity against Cucumber Gray Mold Rot (CGM) disease. The test is classed as in vivo. Particulars: for Fungicidal Activities CGM (C.V.): 50 ppm; for CGM (Fungicidal Activities, C.V.): Cucumber Gray Mold Rot, concentration 50 ppm. How it is done: Botrytis cinerae, which was isolated from cucumber infected thereby, was inoculated on a PDA agar medium and cultured under a 12L/12D cycle at 25° C. for 15 days to form spore. The spores were scraped, filtered through a gauze and then suspended in potato dextrose liquid medium at a concentration of 1×10^6 spore/ml. The spore suspension was sprayed on a cucumber plant having one leaf. The cucumber plant was held in a humidified room at 20° C. for 3 days. L.A. on a leaf was measured to calculate an C.V.

The subject of the next test is Phytophthora infestans. It counts as in vivo. The note with it: for Fungicidal Activities TLB (C.V.): 50 ppm; for TLB (Fungicidal Activities, C.V.): Tomato Late Blight.
In the next test the test system is Puccinia recondita. In words: Fungicidal activity against Wheat Leaf Rust (WLR) disease. Particulars: for WLR (Fungicidal Activities, C.V.): Wheat Leaf Rust. It counts as in vivo.
The subject of a further test is Erysiphae graminis. In words: Fungicidal activity against Barley Powdery Mildew (BPM) disease. It counts as in vivo. The note with it: for BPM (Fungicidal Activities, C.V.): Barley Powdery Mildew.
The subject of the next test is Rhizoctonia solani AG-1. In words: Fungicidal activity against Rice Sheath Blight (RSB) disease. Particulars: for RSB (Fungicidal Activities, C.V.): Rice Sheath Blight.

As for `CON=C(C(=O)OC)c1ccccc1CON=C(c1cccc(OC(F)=C(c2ccccc2)C(F)(F)F)c1)C(F)(F)F` [Compound 221], the “Fungicidal Activities RCV (C.V.)” value in test [1] (50 ppm) came to 41%. Also, the “Fungicidal Activities CGM (C.V.)” value in the test on Botrytis cinerae is 0%. Besides, the “Fungicidal Activities TLB (C.V.)” value in the test on Phytophthora infestans is reported as 0%. Moreover, the “Fungicidal Activities WLR (C.V.)” value in the test with Puccinia recondita (10 ppm) worked out at 91%; with Puccinia recondita (50 ppm), 100%. The entries for the “Fungicidal Activities BPM (C.V.)” value in the test on Erysiphae graminis (10 ppm) and with Erysiphae graminis (50 ppm) were 96% and 100%, respectively. In addition, in the test with Rhizoctonia solani AG-1 (50 ppm), the “Fungicidal Activities RSB (C.V.)” value is 30%.
On to `COC=C(C(=O)OC)c1ccccc1CON=Cc1cccc(OC(F)=C(c2ccc(F)cc2)C(F)(F)F)c1` [Compound 113], for which the “RCV (Fungicidal Activities, C.V.)” value in test [1] (concentration 50 ppm) is 0%. For the same molecule, in the test with Botrytis cinerae, the “CGM (Fungicidal Activities, C.V.)” value was determined as 0%. The “TLB (Fungicidal Activities, C.V.)” value with Phytophthora infestans (concentration 50 ppm) was found to be 21%. The results for the “WLR (Fungicidal Activities, C.V.)” value in the test on Puccinia recondita (concentration 2 ppm), in the test on Puccinia recondita (concentration 10 ppm) and in the test on Puccinia recondita (concentration 50 ppm) were 86%, 98% and 100%, respectively. In addition, the “BPM (Fungicidal Activities, C.V.)” value in the test on Erysiphae graminis (concentration 2 ppm) is 86%; in the test on Erysiphae graminis (concentration 10 ppm), 96%; in the test with Erysiphae graminis (concentration 50 ppm), 100%. Further, the “RSB (Fungicidal Activities, C.V.)” value in the test with Rhizoctonia solani AG-1 (concentration 50 ppm) was determined as 20%.
In the case of `CON=C(C(=O)OC)c1ccccc1CON=Cc1cccc(OC(F)=C(c2ccc(F)cc2)C(F)(F)F)c1` [Compound 135], the “RCV (Fungicidal Activities, C.V.)” value in test [1] (concentration 2 ppm) is listed as 43%; in test [1] (concentration 50 ppm), 86%. The “CGM (Fungicidal Activities, C.V.)” value in the test with Botrytis cinerae was found to be 71%. For the same molecule, the “TLB (Fungicidal Activities, C.V.)” value in the test on Phytophthora infestans (concentration 50 ppm) amounted to 0%. Further, the entries for the “WLR (Fungicidal Activities, C.V.)” value with Puccinia recondita (concentration 2 ppm) and with Puccinia recondita (concentration 50 ppm) were 94% and 100%, respectively. Moreover, the “BPM (Fungicidal Activities, C.V.)” value in the test on Erysiphae graminis (concentration 2 ppm) amounted to 93%; in the test on Erysiphae graminis (concentration 50 ppm), 100%. Also, the figures for the “RSB (Fungicidal Activities, C.V.)” value with Rhizoctonia solani AG-1 (concentration 2 ppm) and in the test with Rhizoctonia solani AG-1 (concentration 50 ppm) were 20% and 61%, respectively.
Turning to `CNC(=O)C(=NOC)c1ccccc1CON=C(C)c1cccc(OC(F)=Cc2cccc(C)c2)c1` [Compound 78], the “RCV (Fungicidal Activities, C.V.)” value in test [1] (concentration 2 ppm) and in test [1] (concentration 50 ppm) was 100% each time. Besides, in the test with Botrytis cinerae, the “CGM (Fungicidal Activities, C.V.)” value is recorded as 82%. The “TLB (Fungicidal Activities, C.V.)” value in the test on Phytophthora infestans (concentration 2 ppm) is given as 50%; in the test on Phytophthora infestans (concentration 50 ppm), 94%. The “WLR (Fungicidal Activities, C.V.)” value in the test with Puccinia recondita (concentration 2 ppm) and in the test with Puccinia recondita (concentration 50 ppm) was 100% each time. Further, the “BPM (Fungicidal Activities, C.V.)” value in the test with Erysiphae graminis (concentration 2 ppm) and in the test with Erysiphae graminis (concentration 50 ppm) was 100% throughout. Besides, the “RSB (Fungicidal Activities, C.V.)” value stood at 45% in the test with Rhizoctonia solani AG-1 (concentration 2 ppm) and 90% in the test on Rhizoctonia solani AG-1 (concentration 50 ppm).
For the molecule `COC=C(C(=O)OC)c1ccccc1CON=Cc1cccc(OC(F)=C(c2ccc(OC)cc2)C(F)(F)F)c1` [Compound 111], the “RCV (Fungicidal Activities, C.V.)” value in test [1] (concentration 50 ppm) was found to be 0%. For the same molecule, the “CGM (Fungicidal Activities, C.V.)” value with Botrytis cinerae amounted to 17%. In the test with Phytophthora infestans (concentration 50 ppm), the “TLB (Fungicidal Activities, C.V.)” value is 0%. The figures for the “WLR (Fungicidal Activities, C.V.)” value with Puccinia recondita (concentration 2 ppm), with Puccinia recondita (concentration 10 ppm) and in the test on Puccinia recondita (concentration 50 ppm) were 80%, 95% and 98%, respectively. The “BPM (Fungicidal Activities, C.V.)” value with Erysiphae graminis (concentration 2 ppm) is listed as 95%; with Erysiphae graminis (concentration 10 ppm) it was 100%; in the test on Erysiphae graminis (concentration 50 ppm) it was 100%. The “RSB (Fungicidal Activities, C.V.)” value with Rhizoctonia solani AG-1 (concentration 50 ppm) is 0%.
In the case of `CON=C(C(=O)OC)c1ccccc1CON=C(C)c1cccc(OC(F)=C(c2ccccc2)C(F)(F)F)c1` [Compound 173], the figures for the “Fungicidal Activities RCV (C.V.)” value in test [1] (2 ppm) and in test [1] (50 ppm) were 93% and 97%, respectively. For the same molecule, the “Fungicidal Activities CGM (C.V.)” value in the test with Botrytis cinerae came out at 25%. In addition, the “Fungicidal Activities TLB (C.V.)” value with Phytophthora infestans is on record as 20%. For the same molecule, the “Fungicidal Activities WLR (C.V.)” value in the test with Puccinia recondita (2 ppm) came to 99%; with Puccinia recondita (50 ppm), 100%. In addition, the “Fungicidal Activities BPM (C.V.)” value in the test with Erysiphae graminis (2 ppm) was 99%; in the test with Erysiphae graminis (50 ppm), 100%. Moreover, the entries for the “Fungicidal Activities RSB (C.V.)” value with Rhizoctonia solani AG-1 (2 ppm) and in the test with Rhizoctonia solani AG-1 (50 ppm) were 30% and 100%, respectively.
For the molecule `CCc1ccc(C=C(F)Oc2cccc(C(C)=NOCc3ccccc3C(=COC)C(=O)OC)c2)cc1` [Compound 45], the “RCV (Fungicidal Activities, C.V.)” value in test [1] (concentration 2 ppm) is given as 41%; in test [1] (concentration 10 ppm), 93%; in test [1] (concentration 50 ppm), 97%. Besides, in the test on Botrytis cinerae, the “CGM (Fungicidal Activities, C.V.)” value was found to be 17%. In the test with Phytophthora infestans (concentration 50 ppm), the “TLB (Fungicidal Activities, C.V.)” value is listed as 85%. Moreover, the “WLR (Fungicidal Activities, C.V.)” value with Puccinia recondita (concentration 2 ppm) was 95%; in the test on Puccinia recondita (concentration 10 ppm) it was 100%; in the test with Puccinia recondita (concentration 50 ppm) it was 100%. Besides, the “BPM (Fungicidal Activities, C.V.)” value is on record as 99% in the test with Erysiphae graminis (concentration 2 ppm), 100% with Erysiphae graminis (concentration 10 ppm) and 100% in the test on Erysiphae graminis (concentration 50 ppm). Besides, the “RSB (Fungicidal Activities, C.V.)” value in the test on Rhizoctonia solani AG-1 (concentration 50 ppm) is recorded as 65%.
In the case of `CCCCc1ccc(C=C(F)Oc2cccc(C(C)=NOCc3ccccc3C(=NOC)C(=O)OC)c2)cc1` [Compound 70], the “RCV (Fungicidal Activities, C.V.)” value is recorded as 99% in test [1] (concentration 2 ppm) and 100% in test [1] (concentration 50 ppm). Moreover, the “CGM (Fungicidal Activities, C.V.)” value with Botrytis cinerae stood at 50%. Moreover, the results for the “TLB (Fungicidal Activities, C.V.)” value in the test on Phytophthora infestans (concentration 2 ppm) and with Phytophthora infestans (concentration 50 ppm) were 12% and 0%, respectively. In addition, the “WLR (Fungicidal Activities, C.V.)” value was determined as 93% in the test with Puccinia recondita (concentration 2 ppm) and 97% in the test on Puccinia recondita (concentration 50 ppm). In addition, the “BPM (Fungicidal Activities, C.V.)” value in the test with Erysiphae graminis (concentration 2 ppm) was 83%; with Erysiphae graminis (concentration 50 ppm) it was 100%. Also, the “RSB (Fungicidal Activities, C.V.)” value with Rhizoctonia solani AG-1 (concentration 2 ppm) was found to be 20%; in the test with Rhizoctonia solani AG-1 (concentration 50 ppm), 85%.
Turning to `COC=C(C(=O)OC)c1ccccc1CON=C(c1cccc(OC(F)=Cc2cccc(F)c2)c1)C(F)(F)F` [Compound 90], in test [1] (concentration 50 ppm), the “RCV (Fungicidal Activities, C.V.)” value came to 76%. Besides, the “CGM (Fungicidal Activities, C.V.)” value in the test with Botrytis cinerae is 9%. In addition, the “TLB (Fungicidal Activities, C.V.)” value in the test on Phytophthora infestans (concentration 50 ppm) is 27%. For the same molecule, the “WLR (Fungicidal Activities, C.V.)” value with Puccinia recondita (concentration 50 ppm) is on record as 86%. The “BPM (Fungicidal Activities, C.V.)” value in the test with Erysiphae graminis (concentration 10 ppm) was determined as 97%; in the test with Erysiphae graminis (concentration 50 ppm) it was 99%. For the same molecule, the “RSB (Fungicidal Activities, C.V.)” value in the test with Rhizoctonia solani AG-1 (concentration 50 ppm) was 35%.
For `COC=C(C(=O)OC)c1ccccc1CON=Cc1cccc(OC(F)=C(c2cccc(C)c2)C(F)(F)F)c1` [Compound 104], the “RCV (Fungicidal Activities, C.V.)” value in test [1] (concentration 2 ppm) is reported as 25%; in test [1] (concentration 10 ppm) it was 75%; in test [1] (concentration 50 ppm), 96%. In addition, the “CGM (Fungicidal Activities, C.V.)” value with Botrytis cinerae is listed as 0%. Further, the “TLB (Fungicidal Activities, C.V.)” value in the test with Phytophthora infestans (concentration 50 ppm) worked out at 0%. For the same molecule, the “WLR (Fungicidal Activities, C.V.)” value in the test on Puccinia recondita (concentration 2 ppm) is on record as 66%; with Puccinia recondita (concentration 10 ppm) it was 93%; in the test on Puccinia recondita (concentration 50 ppm) it was 97%. For the same molecule, the entries for the “BPM (Fungicidal Activities, C.V.)” value with Erysiphae graminis (concentration 2 ppm), with Erysiphae graminis (concentration 10 ppm) and in the test with Erysiphae graminis (concentration 50 ppm) were 80%, 99% and 100%, respectively. The “RSB (Fungicidal Activities, C.V.)” value with Rhizoctonia solani AG-1 (concentration 50 ppm) turned out to be 45%.
Regarding `CNC(=O)C(=NOC)c1ccccc1CON=Cc1cccc(OC(F)=Cc2cccc(C)c2)c1` [Compound 31], the “RCV (Fungicidal Activities, C.V.)” value came out at 97% in test [1] (concentration 2 ppm) and 100% in test [1] (concentration 50 ppm). In the test with Botrytis cinerae, the “CGM (Fungicidal Activities, C.V.)” value is 25%. In addition, the “TLB (Fungicidal Activities, C.V.)” value in the test with Phytophthora infestans (concentration 50 ppm) amounted to 8%. Besides, the “WLR (Fungicidal Activities, C.V.)” value with Puccinia recondita (concentration 2 ppm) came out at 83%; in the test on Puccinia recondita (concentration 50 ppm) it was 100%. The “BPM (Fungicidal Activities, C.V.)” value in the test with Erysiphae graminis (concentration 2 ppm) was 8%; with Erysiphae graminis (concentration 50 ppm), 100%. Besides, in the test on Rhizoctonia solani AG-1 (concentration 50 ppm), the “RSB (Fungicidal Activities, C.V.)” value was determined as 52%.
